The source of these data is patent US7998995B2 (Exelixis Patent Company LLC, priority 2006, dated 2011).

This assay relates to T1, LXR.
T1 construct: fused on or other part: GST fused to the LBD in the FRET assay
The experiment in a line: Measured EC50 or IC50 for LXR (LXRα and/or LXRβ; assay and subtype not given). To be noted: IC50 or EC50 class, subtype not specified. The protocol:
Measured EC50 or IC50 for LXR, and FXR for Compounds of the Invention
LXR and FXR activities for various compounds of the invention are presented in the following table; those compounds with EC50 or IC50 values <10 μM for at least one of LXRα, LXRβ or FXR are considered to be active. In the following Table, IC50 or EC50 data is represented as follows: A<1 μM, B=1-10 μm, and C>10 μM.

Compound `CS(=O)(=O)c1cccc(-c2ccc(OCc3cc(C(F)(F)F)nn3-c3ccccc3Cl)c(F)c2)c1` [Example 925, 1-(2-chlorophenyl)-5-({[3-fluoro-3′-(methylsulfonyl)biphenyl-4-yl]oxy}methyl)-3-(trifluoromethyl)-1H-pyrazole] displayed an EC50 below 1000 nM.
Compound `CS(=O)(=O)c1cccc(-c2ccc(OCc3cc(C(F)(F)F)nn3-c3ccccc3Cl)c(C#N)c2)c1` [Example 926, 4-({[1-(2-chlorophenyl)-3-(trifluoromethyl)-1H-pyrazol-5-yl]methyl}oxy)-3′-(methylsulfonyl)biphenyl-3-carbonitrile] displayed an EC50 of 1000 to 10000 nM.
`CS(=O)(=O)c1cccc(-c2ccc(NCc3cc(C(F)(F)F)nn3-c3ccccc3Cl)cc2)c1` [Example 928, N-{[1-(2-chlorophenyl)-3-(trifluoromethyl)-1H-pyrazol-5-yl]methyl}-3′-(methylsulfonyl)biphenyl-4-amine] had an EC50 below 1000 nM.
On to `COc1cc(-c2ccc(-c3cccc(S(C)(=O)=O)c3)s2)n(-c2ccccc2Cl)n1` [Example 933, 1-(2-chlorophenyl)-3-(methyloxy)-5-{5-[3-(methylsulfonyl)phenyl]-2-thienyl}-1H-pyrazole], for which the EC50 was above 10000 nM.
Compound `CC1(C)COC(c2cn(-c3ccc(-c4cccc(S(C)(=O)=O)c4)cc3Cl)c(-c3c(Cl)cccc3Cl)n2)=N1` [Example 934, 2-{1-[3-chloro-3′-(methylsulfonyl)biphenyl-4-yl]-2-(2,6-dichlorophenyl)-1H-imidazol-4-yl}-4,4-dimethyl-4,5-dihydro-1,3-oxazole] gave an EC50 below 1000 nM.
For `CCS(=O)(=O)c1cccc(-c2ccc(-n3cc(C4=NC(C)(C)CO4)nc3-c3c(Cl)cccc3Cl)c(Cl)c2)c1` [Example 935, 2-{1-[3-chloro-3′-(ethylsulfonyl)biphenyl-4-yl]-2-(2,6-dichlorophenyl)-1H-imidazol-4-yl}-4,4-dimethyl-4,5-dihydro-1,3-oxazole], the 50% effective concentration (EC50) was below 1000 nM.
Regarding `CS(=O)(=O)c1cccc(-c2ccc(-n3cc(C4=NCCO4)nc3-c3c(Cl)cccc3Cl)c(Cl)c2)c1` [Example 936, 2-{1-[3-chloro-3′-(methylsulfonyl)biphenyl-4-yl]-2-(2,6-dichlorophenyl)-1H-imidazol-4-yl}-4,5-dihydro-1,3-oxazole], the EC50 was below 1000 nM.
In the case of `CC1CN=C(c2cn(-c3ccc(-c4cccc(S(C)(=O)=O)c4)cc3Cl)c(-c3c(Cl)cccc3Cl)n2)O1` (stereo not drawn) [Example 937, 2-{1-[3-chloro-3′-(methylsulfonyl)biphenyl-4-yl]-2-(2,6-dichlorophenyl)-1H-imidazol-4-yl}-5-methyl-4,5-dihydro-1,3-oxazole] it was below 1000 nM; in that of `CC1COC(c2cn(-c3ccc(-c4cccc(S(C)(=O)=O)c4)cc3Cl)c(-c3c(Cl)cccc3Cl)n2)=N1` (stereo not drawn) [Example 938, 2-{1-[3-chloro-3′-(methylsulfonyl)biphenyl-4-yl]-2-(2,6-dichlorophenyl)-1H-imidazol-4-yl}-4-methyl-4,5-dihydro-1,3-oxazole], below 1000 nM.
In the case of `CC1(C)COC(c2cn(-c3ccc(-c4cccc(S(C)(=O)=O)c4)cc3)c(-c3c(Cl)cccc3Cl)n2)=N1` [Example 939, 2-{2-(2,6-dichlorophenyl)-1-[3′-(methylsulfonyl)biphenyl-4-yl]-1H-imidazol-4-yl}-4,4-dimethyl-4,5-dihydro-1,3-oxazole] it was below 1000 nM; in that of `CC1(C)CSC(c2cn(-c3ccc(-c4cccc(S(C)(=O)=O)c4)cc3Cl)c(-c3c(Cl)cccc3Cl)n2)=N1` [Example 940, 2-{1-[3-chloro-3′-(methylsulfonyl)biphenyl-4-yl]-2-(2,6-dichlorophenyl)-1H-imidazol-4-yl}-4,4-dimethyl-4,5-dihydro-1,3-thiazole], below 1000 nM; in that of `CS(=O)(=O)c1cccc(-c2ccc(-n3cc(C4=NCCN4)nc3-c3c(Cl)cccc3Cl)c(Cl)c2)c1` [Example 941, 1′-[3-chloro-3′-(methylsulfonyl)biphenyl-4-yl]-2′-(2,6-dichlorophenyl)-4,5-dihydro-1H,1′H-2,4′-biimidazole], 1000 to 10000 nM.
As for `CC1(C)CN=C(c2cn(-c3ccc(-c4cccc(S(C)(=O)=O)c4)cc3Cl)c(-c3c(Cl)cccc3Cl)n2)N1` [Example 942, 1′-[3-chloro-3′-(methylsulfonyl)biphenyl-4-yl]-2′-(2,6-dichlorophenyl)-5,5-dimethyl-4,5-dihydro-1H,1′H-2,4′-biimidazole], the EC50 is above 10000 nM.
`CC1(C)CN=C(c2cn(-c3ccc(-c4cccc(S(C)(=O)=O)c4)cc3)c(-c3c(Cl)cccc3Cl)n2)N1` [Example 943, 2′-(2,6-dichlorophenyl)-5,5-dimethyl-1′-[3′-(methysulfonyl)biphenyl-4-yl]-4,5-dihydro-1H,1′H-2,4′-biimidazole] registered an EC50 above 10000 nM.
For `Cc1noc(-c2cn(-c3ccc(-c4cccc(S(C)(=O)=O)c4)cc3Cl)c(-c3c(Cl)cccc3Cl)n2)n1` [Example 944, 5-{1-[3-chloro-3′-(methylsulfonyl)biphenyl-4-yl]-2-(2,6-dichlorophenyl)-1H-imidazol-4-yl}-3-methyl-1,2,4-oxadiazole], the EC50 is below 1000 nM.
`CC(C)(c1ccccc1Cl)c1nc(C2CCCN2)cn1-c1ccc(-c2cccc(S(C)(=O)=O)c2)cc1` (stereo not drawn) [Example 976, 2-[1-(2-Chlorophenyl)-1-methylethyl]-1-[3′-(methylsulfonyl)biphenyl-4-yl]-4-pyrrolidin-2-yl-1H-imidazole] yielded an EC50 of 1000 to 10000 nM.
With `COC(=O)N1CCCC1c1cn(-c2ccc(-c3cccc(S(C)(=O)=O)c3)cc2)c(C(C)(C)c2ccccc2Cl)n1` (stereo not drawn) [Example 977, Methyl 2-{2-[1-(2-chlorophenyl)-1-methylethyl]-1-[3′-(methylsulfonyl)biphenyl-4-yl]-1H-imidazol-4-yl}pyrrolidine-1-carboxylate], the EC50 was below 1000 nM.
The result for `CC(=O)N1CCCC1c1cn(-c2ccc(-c3cccc(S(C)(=O)=O)c3)cc2)c(C(C)(C)c2ccccc2Cl)n1` (stereo not drawn) [Example 978, 4-(1-acetylpyrrolidin-2-yl)-2-[1-(2-chlorophenyl)-1-methylethyl]-1-[3′-(methylsulfonyl)biphenyl-4-yl]-1H-imidazole] reads below 1000 nM; that for `CN1CCCC1c1cn(-c2ccc(-c3cccc(S(C)(=O)=O)c3)cc2)c(C(C)(C)c2ccccc2Cl)n1` (stereo not drawn) [Example 979, 2-[1-(2-chlorophenyl)-1-methylethyl]-4-(1-methylpyrrolidin-2-yl)-1-[3′-(methylsulfonyl)biphenyl-4-l]-1H-imidazole], 1000 to 10000 nM; that for `CS(=O)(=O)c1cccc(-c2ccc(-n3cc(C4(O)CC4)nc3-c3ccccc3Cl)cc2)c1` [Example 980, 1-(2-(2-chlorophenyl)-1-(3′-(methylsulfonyl)biphenyl-4-yl)-1H-imidazol-4-yl)cyclopropanol], below 1000 nM.
Compound `CS(=O)(=O)c1cccc(-c2ccc(-n3cc(C4(O)CCCC4)nc3-c3ccccc3Cl)cc2)c1` [Example 981, 1-(2-(2-chlorophenyl)-1-(3′-(methylsulfonyl)biphenyl-4-yl)-1H-imidazol-4-yl)cyclopentanol] registered an EC50 of 1000 to 10000 nM.
Turning to `CC1(C)CC(=O)C=C(c2cn(-c3ccc(-c4cccc(S(C)(=O)=O)c4)cc3Cl)c(-c3ccccc3Cl)n2)O1` [Example 982, 6-[1-(3-Chloro-3′-methanesulfonyl-biphenyl-4-yl)-2-(2-chlorophenyl)-1-H-imidazol-4-yl]-2,2-dimethyl-2,3-dihydro-pyran-4-one], the EC50 is below 1000 nM.
Turning to `CN1CC(c2cn(-c3ccc(-c4cccc(S(C)(=O)=O)c4)cc3Cl)c(-c3ccccc3Cl)n2)CC1=O` (stereo not drawn) [Example 984, 4-[1-(3-Chloro-3′-methanesulfonyl-biphenyl-4-yl)-2-(2-chlorophenyl)-1-H-imidazol-4-yl]-1-methyl-pyrrolidin-2-one], the EC50 is below 1000 nM.
In the case of `CS(=O)(=O)c1cccc(-c2ccc(-n3cc(-c4cc(C(F)(F)F)on4)nc3-c3ccccc3Cl)c(Cl)c2)c1` [Example 990, 3-(1-(3-chloro-3′-(methylsulfonyl)biphenyl-4-yl)-2-(2-chlorophenyl)-1H-imidazol-4-yl)-5-(trifluoromethyl)isoxazole] it was 1000 to 10000 nM; in that of `CS(=O)(=O)c1cccc(-c2ccc(-n3cc(C4CC4)nc3-c3ccccc3C(F)(F)F)cc2)c1` [Example 991, 4-cyclopropyl-1-(3′-(methylsulfonyl)biphenyl-4-yl)-2-(2-(trifluoromethyl)phenyl)-1H-imdazole], below 1000 nM; in that of `CS(=O)(=O)c1cccc(-c2ccc(-n3cc(-c4ccsc4)nc3-c3cccc(Cl)c3Cl)cc2)c1` [Example 992, 2-(2,3-dichlorophenyl)-1-(3′-(methylsulfonyl)biphenyl-4-yl)-4-(thiophen-3-yl)-1H-imidazole], below 1000 nM.
In the case of `Cc1cscc1-c1cn(-c2ccc(-c3cccc(S(C)(=O)=O)c3)cc2)c(-c2ccccc2C(F)(F)F)n1` [Example 993, 1-(3′-(methylsulfonyl)biphenyl-4-yl)-4-(4-methylthiophen-3-yl)-2-(2-(trifluoromethyl)phenyl)-1H-imidazole] it was 1000 to 10000 nM; in that of `Cn1cc(-c2cn(-c3ccc(-c4cccc(S(C)(=O)=O)c4)cc3)c(-c3ccccc3C(F)(F)F)n2)cn1` [Example 994, 1-methyl-4-(1-(3′-(methylsulfonyl)biphenyl-4-yl)-2-(2-(trifluoromethyl)phenyl)-1H-imidazol-4-yl)-1H-pyrazole], below 1000 nM; in that of `CS(=O)(=O)c1cccc(-c2ccc(-n3cc(-c4ccoc4)nc3-c3ccccc3C(F)(F)F)cc2)c1` [Example 995, 4-(furan-3-yl)-1-(3′-(methylsulfonyl)biphenyl-4-yl)-2-(2-(trifluoromethyl)phenyl)-1H-imidazole], below 1000 nM.
In the case of `CS(=O)(=O)c1cccc(-c2ccc(-n3cc(-c4ccsc4)nc3-c3ccccc3C(F)(F)F)cc2)c1` [Example 996, 1-(3′-(methylsulfonyl)biphenyl-4-yl)-4-(thiophen-3-yl)-2-(2-(trifluoromethyl)phenyl)-1H-imidazole] it was below 1000 nM.

As usually defined, the EC50 is the concentration that produces a half-maximal response. High values mean weaker potency, low ones greater potency.
